Measured values as given in patent US6784201B2, “Benzothiepines having activity as inhibitors of ileal bile acid transport and taurocholate uptake” (G.D. Searle & Company, priority 1994, dated 2004).
pIC50: −log10 of the molar value.

Target: T1, human IBAT (Homo sapiens, UniProt Q12908)
T1 construct: expressed in transfected cells; host or cells: Baby hamster kidney (BHK) cells, clone H14
T1 sequence (Q12908 1-348): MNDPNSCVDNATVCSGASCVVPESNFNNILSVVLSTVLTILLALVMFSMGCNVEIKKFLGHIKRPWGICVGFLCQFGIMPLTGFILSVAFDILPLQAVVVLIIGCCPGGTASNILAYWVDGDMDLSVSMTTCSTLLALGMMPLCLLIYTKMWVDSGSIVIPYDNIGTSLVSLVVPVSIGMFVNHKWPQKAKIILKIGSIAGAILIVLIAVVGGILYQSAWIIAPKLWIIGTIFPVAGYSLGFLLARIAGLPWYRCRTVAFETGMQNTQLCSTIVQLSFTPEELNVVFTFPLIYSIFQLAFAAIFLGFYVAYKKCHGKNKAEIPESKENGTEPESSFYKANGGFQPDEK
Assay: In vitro assay of IBAT-mediated uptake of [14C]-taurocholate (TC) in H14 cells
Assay type: cell-based
Details: Human TC IC50
Outline: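 BHK cells stably expressing human IBAT (H14) were incubated 2 h at 37° C with compound and 3 μM final [14C]-taurocholate in DMEM (4.5 g/L glucose) plus 0.2% fatty acid-free BSA. After cold PBS washes, cell-associated radioactivity was measured by scintillation counting.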

Row | SMILES | pIC50
1 | CCCCC1(CCCC)CS(=O)(=O)c2ccc(N(C)C)cc2C(c2ccc(CC(=O)N(C)CN(C)C)c(F)c2)C1O (centres unmarked) [Example 1280] | 6.12
2 | CCCCC1(CC)CS(=O)(=O)c2ccc(N(C)C)cc2C(c2ccccc2)C1O (centres unmarked) [Example 1285] | 7.57

Same assay, conditions: read-out: Human TC IC50

Row | pIC50 | SMILES
3 | 6.85 | CCCCC1(CCCC)CS(=O)(=O)c2ccc(N(C)C)cc2C(c2ccccc2N(C)C)C1O (centres unmarked) [Example 1210]
4 | 6.12 | CCCCC1(CC)CS(=O)(=O)c2ccc(N(C)C=O)cc2C(c2ccccc2)C1O (centres unmarked) [Example 1214]
5 | 6.72 | CCCCC1(CCCC)CS(=O)(=O)c2c(SC)cccc2C(c2ccc(OC)cc2)C1O (centres unmarked) [Example 1215]
6 | 6.49 | CCCCC1(CCCC)CS(=O)(=O)c2ccc(N(C)C)cc2C(c2ccc(C(=O)O)cc2)C1O (centres unmarked) [Example 1217]
7 | 6.72 | CCCCC1(CCCC)CS(=O)(=O)c2c(cccc2S(C)(=O)=O)C(c2ccc(OC)cc2)C1O (centres unmarked) [Example 1218]
8 | 6.47 | CCCCC1(CCCC)CS(=O)(=O)c2ccc(N(C)C)cc2C(c2ccc(OCCN(C)C)cc2)C1O (centres unmarked) [Example 1219]
9 | 6.70 | CCCCC1(CCCC)CS(=O)(=O)c2ccc(NC(C)C)cc2C(c2cccc(OC)c2)C1O (centres unmarked) [Example 1220]
10 | 7.39 | CCCCC1(CCCC)CS(=O)(=O)c2ccc(N(C)C)cc2C(c2ccc(C(=O)OC)cc2)C1O (centres unmarked) [Example 1221]
11 | 7.19 | CCCCC1(CCCC)CS(=O)(=O)c2ccc(NCC)cc2C(c2cccc(OC)c2)C1O (centres unmarked) [Example 1222]
12 | 6.55 | CCCCC1(CCCC)CS(=O)(=O)c2cc(Br)c(NC)cc2C(c2ccccc2)C1O (centres unmarked) [Example 1223]
13 | 6.48 | CCCCC1(CCCC)CS(=O)(=O)c2ccc(F)cc2C(c2cccc([N+](=O)[O-])c2)C1O (centres unmarked) [Example 1224]
14 | 7.42 | CCCCC1(CCCC)CS(=O)(=O)c2cc(Br)c(N(C)C)cc2C(c2ccc[nH]2)C1O (centres unmarked) [Example 1228]
15 | 7.31 | CCCCC1(CCCC)CS(=O)(=O)c2ccc(N(C)C)cc2C(c2ccc(O)c(Cl)c2)C1O (centres unmarked) [Example 1229]
16 | 7.21 | CCCCC1(CCCC)CS(=O)(=O)c2c(cc(F)cc2N(C)C)C(c2ccccc2)C1O (centres unmarked) [Example 1230]
17 | 7.12 | CCCCC1(CCCC)CS(=O)(=O)c2ccc(N(C)C)cc2C(c2ccc3cc(OC)ccc3c2)C1O (centres unmarked) [Example 1231]
18 | 6.82 | CCCCC1(CCCC)CS(=O)(=O)c2ccc(N(C)C)cc2C(c2cccc(C[N+](C)(C)CCN(C)C)c2)C1O (centres unmarked) [Example 1233]
19 | 7.17 | CCCCC1(CCCC)CS(=O)(=O)c2ccc(N(C)C)cc2C(c2cccc(C[N+](C)(C)C)c2)C1O (centres unmarked) [Example 1234]
20 | 7.35 | CCCCC1(CCCC)CS(=O)(=O)c2ccc(N(C)C)cc2C(c2cccc(OCCN(CC)CC)c2)C1O (centres unmarked) [Example 1235]
21 | 7.30 | CCCCC1(CCCC)CS(=O)(=O)c2ccc(N(C)C)cc2C(c2ccc(CBr)cc2)C1O (centres unmarked) [Example 1236]
22 | 7.15 | CCCCC1(CCCC)CS(=O)(=O)c2ccc(N(C)C)cc2C(c2ccc(OCC[N+](C)(C)CCOCCOCC[N+](C)(C)C)cc2)C1O (centres unmarked) [Example 1237]
23 | 6.10 | C=COCCOCCOCCOc1ccc(C2c3cc(N(C)C)ccc3S(=O)(=O)CC(CCCC)(CCCC)C2O)cc1F (centres unmarked) [Example 1238]

Row | pIC50 | SMILES
24 | 7.46 | CCCCC1(CCCC)CS(=O)(=O)c2ccc(N(C)C)cc2C(c2ccc(OCCOCCBr)c(F)c2)C1O (centres unmarked) [Example 1239]
25 | 7.80 | CCCCC1(CCCC)CS(=O)(=O)c2ccc(N(C)C)cc2C(c2ccc(OC)c(C)c2)C1O (centres unmarked) [Example 1240]
26 | 7.33 | CCCCC1(CCCC)CS(=O)(=O)c2ccc(N(C)C)cc2C(c2cccc(CN(C)C)c2)C1O (centres unmarked) [Example 1241]
27 | 7.54 | CCCCC1(CCCC)CS(=O)(=O)c2ccc(N(C)C)cc2C(c2ccc(OCCOCCOCCOCCCl)c(F)c2)C1O (centres unmarked) [Example 1242]
28 | 6.20 | CCCCC1(CCCC)CS(=O)(=O)c2ccc(N(C)C)cc2C(c2ccc(O)c(C[N+](C)(C)C)c2)C1O (centres unmarked) [Example 1243]
29 | 6.49 | CCCCC1(CCCC)CS(=O)(=O)c2ccc(N(C)C)cc2C(c2cccc([N+](C)(C)C)c2)C1O (centres unmarked) [Example 1245]
30 | 7.74 | CCCCC1(CCCC)CS(=O)(=O)c2ccc(N(C)C)cc2C(c2cccc(CBr)c2)C1O (centres unmarked) [Example 1246]
31 | 7.77 | CCCCC1(CCCC)CS(=O)(=O)c2ccc(N(C)C)cc2C(c2ccc3cc(O)ccc3c2)C1O (centres unmarked) [Example 1247]
32 | 6.48 | CCCCC1(CCCC)CS(=O)(=O)c2ccc(N(C)C)cc2C(c2ccc(O)c(CN(C)C)c2)C1O (centres unmarked) [Example 1248]
33 | 4.99 | CCCCC1(CCCC)CS(=O)(=O)c2ccc(N(C)C)cc2C(c2ccc(C[N+](C)(C)CCO)cc2)C1O (centres unmarked) [Example 1249]
34 | 7.89 | CCCCC1(CCCC)CS(=O)(=O)c2ccc(N(C)C)cc2C(c2cccc(N(C)C)c2)C1O (centres unmarked) [Example 1250]
35 | 6.21 | CCCCC1(CCCC)CS(=O)(=O)c2ccc(N(C)C)cc2C(c2cccc3ccccc23)C1O (centres unmarked) [Example 1251]
36 | 4.54 | CCCCC1(CCCC)CS(=O)(=O)c2ccc(N(C)C)cc2C(c2ccc(OCCC[N+](CC)(CC)CC)cc2)C1O (centres unmarked) [Example 1252]
37 | 6.52 | CCCCC1(CCCC)CS(=O)(=O)c2ccc(N(C)C)cc2C(c2ccc(OC)c(C[N+](C)(C)C)c2)C1O (centres unmarked) [Example 1253]
38 | 6.07 | CCCCC1(CCCC)CS(=O)(=O)c2ccc(N(C)C)cc2C(c2ccc(C[n+]3ccccc3)cc2)C1O (centres unmarked) [Example 1254]
39 | 6.16 | CCCCC1(CCCC)CS(=O)(=O)c2ccc(N(C)C)cc2C(c2cccc(C[N+](C)(C)CC[N+](C)(C)C)c2)C1O (centres unmarked) [Example 1255]
40 | 7.96 | CCCCC1(CCCC)CS(=O)(=O)c2ccc(N(C)C)cc2C(c2cccc([N+](=O)[O-])c2)C1O (centres unmarked) [Example 1256]
41 | 7.00 | CCCCC1(CCCC)CS(=O)(=O)c2cc(Br)c(N(C)C)cc2C(c2ccccc2)C1O (centres unmarked) [Example 1257]
42 | 6.92 | CCCCC1(CCCC)CS(=O)(=O)c2c(NC(C)(C)C)cccc2C(c2ccc(F)cc2)C1O (centres unmarked) [Example 1258]
43 | 7.92 | CCCCC1(CC)CS(=O)(=O)c2ccc(N(C)C)cc2C(c2cccc(O)c2)C1O (centres unmarked) [Example 1260]
44 | 7.52 | CCCCC1(CCCC)CS(=O)(=O)c2ccc(N(C)C)cc2C(c2cccs2)C1O (centres unmarked) [Example 1262]

Row | pIC50 | SMILES
45 | 6.68 | CCCCC1(CCCC)CS(=O)(=O)c2ccc(NC(C)C)cc2C(c2ccc(F)cc2)C1O (centres unmarked) [Example 1264]
46 | 6.62 | CCCCC1(CCCC)CS(=O)(=O)c2c(NC(C)C)cccc2C(c2ccc(F)cc2)C1O (centres unmarked) [Example 1265]
47 | 7.46 | CCCCC1(CCCC)CS(=O)(=O)c2ccc(N(C)C)cc2C(c2ccc(OCCCCCCCCCC[N+](CC)(CC)CC)cc2)C1O (centres unmarked) [Example 1268]
48 | 7.59 | CCCCC1(CCCC)CS(=O)(=O)c2ccc(N(C)C)cc2C(c2ccc(OCCCCCCCCCCI)cc2)C1O (centres unmarked) [Example 1269]
49 | 7.59 | CCCCC1(CCCC)CS(=O)(=O)c2ccc(N(C)C)cc2C(c2ccc(OCCCCBr)c(F)c2)C1O (centres unmarked) [Example 1270]
50 | 7.96 | CCCCC1(CCCC)CS(=O)(=O)c2ccc(N(C)C)cc2C(c2cccc(OCCOCCOCC[N+](C)(C)CCN(CC)S(=O)(=O)c3ccccc3)c2)C1O (centres unmarked) [Example 1271]
51 | 7.33 | CCCCC1(CCCC)CS(=O)(=O)c2ccc(N(C)C)cc2C(c2cccc(OCCOCCOCC[n+]3cccc(CC(=O)O)c3)c2)C1O (centres unmarked) [Example 1272]
52 | 7.54 | CCCCCCCCC[N+](CCCCCCCCC)(CCCCCCCCC)CCOCCOCCOc1cccc(C2c3cc(N(C)C)ccc3S(=O)(=O)CC(CCCC)(CCCC)C2O)c1 (centres unmarked) [Example 1273]
53 | 7.55 | CCCCC1(CCCC)CS(=O)(=O)c2ccc(N(C)C)cc2C(c2ccc(OCc3cccc(CCl)n3)c(F)c2)C1O (centres unmarked) [Example 1274]
54 | 7.62 | CCCCC1(CCCC)CS(=O)(=O)c2ccc(N(C)C)cc2C(c2ccc(OCCOCC[N+]3(C)CC[N+](C)(C)CC3)c(F)c2)C1O (centres unmarked) [Example 1275]
55 | 7.54 | CCCCC1(CCCC)CS(=O)(=O)c2ccc(N(C)C)cc2C(c2cccc(OCCOCCOCC[N+](CCCCCCC(C)C)(CCCCCCC(C)C)CCCCCCC(C)C)c2)C1O (centres unmarked) [Example 1276]
56 | 7.74 | CCCCC1(CCCC)CS(=O)(=O)c2ccc(N(C)C)cc2C(c2ccc(OCCOCCN(C)CC(=O)O)c(F)c2)C1O (centres unmarked) [Example 1277]
57 | 7.77 | CCCCC[N+](CCCCC)(CCCCC)CCOCCOCCOc1cccc(C2c3cc(N(C)C)ccc3S(=O)(=O)CC(CCCC)(CCCC)C2O)c1 (centres unmarked) [Example 1278]
58 | 7.55 | CCCCCC[N+](CCCCCC)(CCCCCC)CCOCCOCCOc1cccc(C2c3cc(N(C)C)ccc3S(=O)(=O)CC(CCCC)(CCCC)C2O)c1 (centres unmarked) [Example 1279]
59 | 7.26 | CCCCC1(CCCC)CS(=O)(=O)c2ccc(N(C)C)cc2C(c2ccc(OCCCCCCI)cc2)C1O (centres unmarked) [Example 1281]
60 | 6.77 | CCCCC1(CC)CS(=O)(=O)c2ccc([N+](C)(C)C)cc2C(c2ccc(OC)c(F)c2)C1O (centres unmarked) [Example 1282]
61 | 6.77 | CCCCC1(CCCC)CS(=O)(=O)c2ccc(N(C)C)cc2C(c2ccc(CO)cc2)C1O (centres unmarked) [Example 1283]
62 | 7.96 | CCCCC1(CCCC)CS(=O)(=O)c2c(NCC)cccc2C(c2ccc(F)cc2)C1O (centres unmarked) [Example 1284]
63 | 7.17 | CCCCC1(CCCC)CS(=O)(=O)c2ccc(N(C)C)cc2C(c2ccc(OCCC[N+](CCCC)(CCCC)CCCC)c(F)c2)C1O (centres unmarked) [Example 1286]
64 | 7.89 | CCCCC1(CCCC)CS(=O)(=O)c2ccc(N(C)C)cc2C(c2cccc(OCCOCCOCC[N+]3(CCOc4ccc(Br)cc4)CCCC3)c2)C1O (centres unmarked) [Example 1288]
65 | 7.59 | CCCCCCCC[N+](CCCCCCCC)(CCCCCCCC)CCOCCOCCOc1cccc(C2c3cc(N(C)C)ccc3S(=O)(=O)CC(CCCC)(CCCC)C2O)c1 (centres unmarked) [Example 1289]
